Results as given in US20120034193A1, “TREATMENT OF NEUROTROPHIC FACTOR MEDIATED DISORDERS” (priority 2009, published 2012).

Key:
trkB mRNA = trkB mRNA expression in rat cortical neurones under basal conditions (rt RT-PCR); assay type: cell-based; conditions: 30 nM
Protocol: Rat cortical neurones were cultured by modification of a method previously described (Singer, et al., Neuroscience Letters, 1996, 212, pp. 13-16). Twelve days after the start of culturing, sarsasapogenin (30 nM), smilagenin (30 nM), 4-methylcatechol (0.5 mM), an inducer of NGF and BDNF release (Saporito et al., Experimental Neurology., 1993, 123, pp. 295-302; Nitta et al., Journal of Pharmacology and Experimental Therapeutics, 1999, 291, pp. 1276-1283) or vehicle (dimethyl sulfoxide, DMSO, 0.25%) were added for 1, 3 or 6 h. After incubation the total messenger ribonucleic acid (mRNA) was quantified using real time reverse transcription-polymerase chain reaction (rt RT-PCR).

[1] = tested on: rat primary cortical neurones; test: ChAT positive neurones and neurite outgrowth after β-amyloid exposure; assay type: cell-based; conditions: 10 μM pre-incubation 48 h, then β-amyloid 10 μg/ml 48 h
Protocol: Rat cortical neurones were cultured by modification of a method previously described (Eckenstein and Sofroniew, Journal of Neuroscience, 1983, 3, pp. 2286-2291). On day 8, the culture medium was changed to a medium containing vehicle (DMSO, 0.5%) or smilagenin or sarsasapogenin (10 μM). On day 10, rat primary cortical neurones were exposed to β-amyloid (10 μg/ml) for 48 h at 37° C. and the concentration of BDNF in the culture medium, the number of choline acetyltransferase (ChAT) positive cells, and the neurite outgrowth was measured (smilagenin only).

[2] = tested on: rat primary cortical neurones; test: Pre-treatment against glutamate-induced damage (LDH) in cortical neurones; assay type: cell-based; conditions: for Neuronal survival (% of control): 24 h before and 24 h after glutamate 100 μM 10 min; for Toxicity at the plateau of activity: nanomolar concentration, cortical neurones in vitro
Protocol: Exposure of rat primary cortical neurones to glutamate increases lactate dehydrogenase (LDH) activity measured 24 h after glutamate exposure, indicating significant neuronal damage. Rat cortical neurones were cultured by modification of a method previously described (Singer, et al., Neuroscience Letters, 1996, 212, pp. 13-16). On day 10 of culture, the medium was changed to a serum-free defined medium. On day 12, the cultures were washed and placed for 24 h in fresh medium containing test compound or vehicle (DMSO, 0.25%). On day 13 neurones were exposed to glutamate (100 μM; 10 min) at 37° C. The cultures were then washed with, and placed in, fresh medium supplemented with test compound or vehicle for a further 24 h before LDH was measured. Neuronal damage was assessed by measuring LDH activity in the media at 24 h after glutamate exposure.

[3] = tested on: Rat primary dopaminergic neurones; test: Reversal of MPP+-induced damage in dopaminergic neurones; assay type: cell-based; conditions: 30 nM for 48 h after MPP+ 2 μM 24 h
Protocol: Rat primary dopaminergic neurones were prepared as described above. On day 5, MPP^+ (2 μM) was added to the cultures for 24 h in culture medium at 37° C. in 5% CO2/95% air atmosphere. Exposure of rat primary dopaminergic neurones to MPP^+ (2 μM, 24 h) causes a significant decrease in the number of dopaminergic neurones compared to the control. On day 6 the medium was removed and fresh medium containing vehicle (DMSO, 0.25%), sarsasapogenin, smilagenin or a combinations of BDNF and GDNF was added. After 48 h, the extent of dopaminergic damage was determined as detailed above.

[4] = tested on: Old Sprague Dawley (SD) rats; test: Y-maze learning and memory in aged rats; assay type: in vivo, Rat; conditions: 18 mg/kg/day oral; for Learning ability (correct response/total time): 2 months, aged 2.39, young 5.97; for Memory ability (correct response/total time): 3 months, aged 2.16, young 5.27; for Anxiety (Y-maze): up to 3 months
Protocol: Old Sprague Dawley (SD) rats (20 month old) were orally administered sarsasapogenin or smilagenin (18 mg/kg/day) for 3 months. Young SD rats (4 month old) were used as healthy positive control and old SD rats (20 month old) were used as neurodegenerative control. A Y-maze was used to assess learning and memory, and was considered also a model of anxiety in light of the nature of the test that caused distress to the animal. On the floor of each arm of the Y-maze was an array of copper rods (2 mm×140 mm) to which an adjustable voltage electric current was applied when needed. Each arm was 450 mm long with a 15 W lamp at the end. Following 2 months of treatment each rat was trained for 7 consecutive days, once on each day. During each training session, a rat was put into one arm of the Y-maze and after 2 min an electrical current applied to the copper rods in the anti-clockwise arm and the lamp of the clockwise arm was illuminated, indicating the non-electrified area. If the rat went into the illuminated arm a correct response was recorded, otherwise a wrong response was recorded. This stimulation-response test was repeated 20 times each day, with a pause of 5 s between each test. The number of correct responses and the total time period for the 20 tests were recorded. A quotient of the number of correct responses divided by the total response time was calculated and used as an index for learning ability, with the higher the quotient the greater the learning ability. One month after the learning test (3 months of treatment) the Y-maze test was carried out again and the quotient obtained was used as an index for memory ability. At the end of the treatment the rats were killed and the brains removed for quantification of BDNF using an ELISA (data of BDNF presented in Example 3 above).

GDNF mRNA = GDNF mRNA in rat dopaminergic neurones following exposure to MPP+; assay type: cell-based; conditions: 10 μM after MPP+ 2 μM 48 h
Protocol: Rat dopaminergic neurones were prepared using a slightly modified previously described method (Brouard et al., Journal of Neuroscience, 1992, 12, pp. 1409-1415). After 5 days in culture MPP^+ (2 μM), a specific dopaminergic neurotoxin, or vehicle (saline) was added for 48 h. The culture medium was then replaced with fresh medium containing smilagenin (10 μM) or vehicle (DMSO, 0.25%) and the level of GDNF mRNA in the dopaminergic neurones was assessed after 10 min and 2, 24, 48 and 72 h by rt RT-PCR.

Row | SMILES | trkB mRNA, % increase above control (trkB mRNA; 1 h) | trkB mRNA, % increase above control (trkB mRNA; 3 h) [%] | trkB mRNA, % increase above control (trkB mRNA; 6 h) | Number of ChAT positive neurones per field (% of control) [1] | Neuronal survival (% of control) ([2]; 1 nM) | Neuronal survival (% of control) ([2]; 3 nM) | Neuronal survival (% of control) ([2]; 10 nM) | Neuronal survival (% of control) ([2]; 30 nM) | Neuronal survival (% of control) ([2]; 100 nM) | Toxicity at the plateau of activity [2] | Neuronal survival (% of control) [3] | Learning ability (correct response/total time) [4] | Memory ability (correct response/total time) [4] | Anxiety (Y-maze) [4] | Relative amount of GDNF mRNA (% of control at 0.167 h) (GDNF mRNA; smilagenin exposure 0.167 h) | Relative amount of GDNF mRNA (% of control at 0.167 h) (GDNF mRNA; smilagenin exposure 2 h) | Relative amount of GDNF mRNA (% of control at 0.167 h) (GDNF mRNA; smilagenin exposure 24 h) | Relative amount of GDNF mRNA (% of control at 0.167 h) (GDNF mRNA; smilagenin exposure 48 h) | Relative amount of GDNF mRNA (% of control at 0.167 h) (GDNF mRNA; smilagenin exposure 72 h) | Neurite outgrowth (% of control) [1]
1 | C[C@H]1CC[C@@]2(OC1)O[C@H]1C[C@H]3[C@@H]4CC[C@@H]5C[C@@H](O)CC[C@]5(C)[C@H]4CC[C@]3(C)[C@H]1[C@@H]2C [Sarsasapogenin, sarsasapogenin] | No increase | 33 | No increase | 71.6 ± 3.7 % of control | 76.88 ± 2.79 % of control | 77.23 ± 2.62 % of control | 73.50 ± 3.05 % of control | 78.91 ± 2.97 % of control | 76.30 ± 4.15 % of control | without causing any toxicity | 104.30 ± 5.63 % of control | 5.02 ± 0.50 correct response/total time | 4.66 ± 0.34 correct response/total time | reduce the anxiety |  |  |  |  |  | 
2 | C[C@@H]1CC[C@@]2(OC1)O[C@H]1C[C@H]3[C@@H]4CC[C@@H]5C[C@@H](O)CC[C@]5(C)[C@H]4CC[C@]3(C)[C@H]1[C@@H]2C [Smilagenin, smilagenin] | 21% | 55 | No increase | 70.1 ± 9.6 % of control | 81.53 ± 1.66 % of control | 78.19 ± 1.85 % of control | 82.50 ± 1.00 % of control | 89.86 ± 3.55 % of control | 82.45 ± 2.18 % of control | without causing any toxicity | 113.44 ± 4.62 % of control | 4.81 ± 0.32 correct response/total time | 4.58 ± 0.26 correct response/total time | reduce the anxiety | 119.9 ± 19.8 % of control at 0.167 h | 581.6 ± 66.3 % of control at 0.167 h | 3319.1 ± 830.3 % of control at 0.167 h | 2185.3 ± 304.1 % of control at 0.167 h | 1413.5 ± 352.1 % of control at 0.167 h | 85.8 ± 4.0 % of control
